Laboratory results taken from patent US10624972B2, “Conjugates for treating diseases” (priority 2015, dated 2020).
Entries after “also recorded” stand apart in the source; their conditions may differ. Where two headings read alike, the source gives them in different places. *1 amine or outer side, *2 acyl side, *3 side chain or, on linkers, in order; H or OH if unused. Where a SMILES comes first, the peptide text is derived from it. The star is where a group is joined. X1 = COc1ccc(C2=CN(C(=O)c3cc(OC)c(OC)cc3N)[C@H](C3OCCN3C(=O)OCCS*)C2)cc1; Pteroyl = Nc1nc2ncc(CNc3ccc(C(=O)*)cc3)nc2c(=O)[nH]1; γGlu = O=C(O)[C@H](CCC(=O)[*:2])N[*:1]

Experiments:
KB cells = experiment: cells; format: cell-based, Human
Protocol: METHOD. Inhibition of Cellular DNA Synthesis. The conjugates described herein were evaluated using an in vitro cytotoxicity assay that predicted the ability of the drug to inhibit the growth of the corresponding targeted cells, such as, but not limited to the following
It is to be understood that the choice of cell type can be made on the basis of the susceptibility of those selected cells to the drug that forms the conjugate, and the relative expression of the cell surface receptor or target antigen. The test conjugates were conjugates of a cell surface receptor or target antigen binding compound and PBD prodrugs, poly-PBD prodrugs, and mixed PBDs, as described herein. The test cells were exposed to varying concentrations of the conjugates, and optionally also in the absence or presence of at least a 100-fold excess of the unconjugated cell surface receptor or target antigen binding compound for competition studies to assess activity as being specific to the cell surface receptor or target antigen.
EXAMPLE. Conjugates of PBD prodrugs, poly-PBD prodrugs, and mixed PBDs described herein were active against KB cells. The activity was mediated by the folate receptor as indicated by competition experiments using co-administered folic acid. KB cells were exposed for up to 7 h at 37° C. to the indicated concentrations of folate-drug conjugate in the absence or presence of at least a 100-fold excess of folic acid. The cells were then rinsed once with fresh culture medium and incubated in fresh culture medium for 72 hours at 37° C. Cell viability was assessed using a ^3H-thymidine incorporation assay. For conjugates described herein, dose-dependent cytotoxicity was generally measurable, and in most cases, the IC50 values (concentration of drug conjugate required to reduce ^3H-thymidine incorporation into newly synthesized DNA by 50%) were in the low nanomolar range.

[1] = Toxicity as measured by weight loss (test animal total body weight); format: in vivo, mice
Protocol: METHOD. Toxicity as Measured by Weight Loss. The percentage weight change of the test animals was determined on selected days post-tumor inoculation (PTI), and during dosing. The results were graphed.

KB-CR2000 tumors = experiment: Cisplatin therapy of cisplatin-resistant KB-CR2000 tumors; format: in vivo; conditions: high, toxic dose of cisplatin
Source text: METHOD. Human cisplatin-resistant cell line.

MDA-MB-231 tumors = experiment: TNBC tumor assay (MDA-MB-231 xenograft); format: in vivo, nu/nu mice; conditions: 2 μmol/kg TIW for two weeks
Source text: General. […] A PR is observed where tumor volume, as defined herein, decreases from a previous high during the observation period, though regrowth may occur. A CR is observed where tumor volume, as defined herein, decreases to zero during the observation period, though regrowth may occur.
METHOD EXAMPLE. TNBC Tumor Assay. Triple negative breast cancer (TNBC) is a subtype characterized by lack of gene expression for estrogen, progesterone and Her2/neu. TNBC is difficult to treat, and the resulting death rate in patients is reportedly disproportionately higher than for any other subtype of breast cancer. A TNBC xenograft model was generated in an analogous way to the KB and M109 models described herein by implanting MDA-MB-231 breast cancer cells in nu/nu mice. […] Test animals (5/group) were injected intravenously, generally three times a week (TIW), for 2-3 weeks with varying doses, such as with 1 μmol/kg to 5 μmol/kg, of the drug delivery conjugate or with an equivalent dose volume of PBS (control), unless otherwise indicated. Dosing solutions were prepared fresh each day in PBS and administered through the lateral tail vein of the mice.

[2] = KB tumor study, 2 μmol/kg TIW for two weeks

Structure (SMILES) | IC50 (KB cells; 3 h) [nM] | toxicity as evidenced by test animal total body weight [1, 2] | other results
C=C1C[C@H]2C=Nc3cc(OCCCCCOc4cc(N)c(C(=O)N5CC(=C)C[C@H]5C5OCCN5C(=O)OCCSSC[C@H](NC(=O)[C@H](CC(=O)O)NC(=O)[C@H](CC(=O)O)NC(=O)[C@H](CCCNC(=N)N)NC(=O)[C@H](CC(=O)O)NC(=O)CC[C@H](NC(=O)c5ccc(NCc6cnc7nc(N)[nH]c(=O)c7n6)cc5)C(=O)O)C(=O)O)cc4OC)c(OC)cc3C(=O)N2C1 (stereo partly shown) [EC1788] | – | – | IC50 (KB cells; KB cells, 3H-thymidine incorporation, read-out: IC50 KB Cells): 0.18 nM; toxicity as evidenced by test animal total body weight ([1]; KB tumor study, 0.2 μmol/kg TIW for two weeks): Minor toxicity was observed; toxicity as evidenced by test animal total body weight ([1]; KB tumor study, 0.4 μmol/kg BIW for 2 weeks): Minor toxicity was observed
N.N.[Cl][Pt][Cl] [cisplatin] | – | – | tumor response to cisplatin therapy (KB-CR2000 tumors): did not produce even a single partial response
C=C1C[C@@H](C2OCCN2C(=O)OCCSSC[C@@H](NC(=O)[C@H](CCC(=O)NC[C@H](O)[C@@H](O)[C@H](O)[C@H](O)CO)NC(=O)[C@@H](CCC(=O)O)NC(=O)[C@H](CCC(=O)NC[C@H](O)[C@@H](O)[C@H](O)[C@H](O)CO)NC(=O)[C@@H](CCC(=O)O)NC(=O)[C@H](CCC(=O)NC[C@H](O)[C@@H](O)[C@H](O)[C@H](O)CO)NC(=O)CC[C@H](NC(=O)c2ccc(NCc3cnc4nc(N)[nH]c(=O)c4n3)cc2)C(=O)O)C(=O)O)N(C(=O)c2cc(OC)c(OCCCCCOc3cc(N)c(C(=O)N4CC(=C)C[C@H]4C4OCCN4C(=O)OCC4c5ccccc5-c5ccccc54)cc3OC)cc2N)C1 (stereo partly shown) [EC1884] | 0.36 | Toxicity was not observed | –
C=C1C[C@@H](C2OCCN2C(=O)OCCSSC[C@@H](NC(=O)[C@H](CCC(=O)NC[C@H](O)[C@@H](O)[C@H](O)[C@H](O)CO)NC(=O)[C@@H](CCC(=O)O)NC(=O)[C@H](CCC(=O)NC[C@H](O)[C@@H](O)[C@H](O)[C@H](O)CO)NC(=O)[C@@H](CCC(=O)O)NC(=O)[C@H](CCC(=O)NC[C@H](O)[C@@H](O)[C@H](O)[C@H](O)CO)NC(=O)CC[C@H](NC(=O)c2ccc(NCc3cnc4nc(N)[nH]c(=O)c4n3)cc2)C(=O)O)C(=O)O)N(C(=O)c2cc(OC)c(OCCCCCOc3ccc(-c4nc5ccc(-c6nc7cc(N8CCN(C)CC8)ccc7[nH]6)cc5[nH]4)cc3)cc2N)C1 (stereo partly shown) [EC1879] | 0.56 | Toxicity was not observed | toxicity as evidenced by test animal total body weight ([1]; KB tumor study, 2 μmol/kg TIW for 1 week): Minor toxicity was observed
COc1ccc(C2=CN(C(=O)c3cc(OC)c(OC)cc3N)[C@H](C3OCCN3C(=O)OCCSSC[C@H](NC(=O)[C@H](CC(=O)O)NC(=O)[C@H](CC(=O)O)NC(=O)[C@H](CCCNC(=N)N)NC(=O)[C@H](CC(=O)O)NC(=O)CC[C@H](NC(=O)c3ccc(NCc4cnc5nc(N)[nH]c(=O)c5n4)cc3)C(=O)O)C(=O)O)C2)cc1 (stereo partly shown) [EC1629] ({Pteroyl-γGlu}-DRDDC(X1)-OH) | – | Toxicity was not observed | –
C=C1C[C@@H](C2OCCN2C(=O)OCc2ccc(SSC[C@H](NC(=O)[C@H](CC(=O)O)NC(=O)[C@H](CC(=O)O)NC(=O)[C@H](CCCNC(=N)N)NC(=O)[C@H](CC(=O)O)NC(=O)CC[C@H](NC(=O)c3ccc(NCc4cnc5nc(N)[nH]c(=O)c5n4)cc3)C(=O)O)C(=O)O)cc2)N(C(=O)c2cc(OC)c(OCCCCCOc3cc(N)c(C(=O)N4CC(=C)C[C@H]4C4OCCN4C(=O)OCc4ccc(SSC[C@H](NC(=O)[C@H](CC(=O)O)NC(=O)[C@H](CC(=O)O)NC(=O)[C@H](CCCNC(=N)N)NC(=O)[C@H](CC(=O)O)NC(=O)CC[C@H](NC(=O)c5ccc(NCc6cnc7nc(N)[nH]c(=O)c7n6)cc5)C(=O)O)C(=O)O)cc4)cc3OC)cc2N)C1 (stereo partly shown) [EC1704] | 0.46 | – | –
COc1ccc(C2=CN(C(=O)c3cc(OC)c(OC)cc3N)[C@H](C3OCCN3C(=O)OCCSSc3ccccn3)C2)cc1 (stereo partly shown) [EC1628] | – | – | IC50 (KB cells; Homo sapiens, KB cells, 3H-thymidine incorporation, read-out: IC50 KB Cells): 383 nM; IC50 (KB cells; Homo sapiens, KB cells, co-administered with dithiothreitol (DTT), read-out: IC50 KB Cells): 11 nM
C=C1C[C@@H](C2OCCN2C(=O)OCc2ccc(NC(=O)[C@H](C)NC(=O)[C@@H](NC(=O)CCCCCN3C(=O)CC(SC[C@@H](NC(=O)[C@H](CCC(=O)NC[C@H](O)[C@@H](O)[C@H](O)[C@H](O)CO)NC(=O)[C@@H](CCC(=O)O)NC(=O)[C@H](CCC(=O)NC[C@H](O)[C@@H](O)[C@H](O)[C@H](O)CO)NC(=O)[C@@H](CCC(=O)O)NC(=O)[C@H](CCC(=O)NC[C@H](O)[C@@H](O)[C@H](O)[C@H](O)CO)NC(=O)CC[C@H](NC(=O)c4ccc(NCc5cnc6nc(N)[nH]c(=O)c6n5)cc4)C(=O)O)C(=O)O)C3=O)C(C)C)cc2)N(C(=O)c2cc(OC)c(OCCCCCOc3cc(N)c(C(=O)N4CC(=C)C[C@H]4C4OCCN4C(=O)OCC4c5ccccc5-c5ccccc54)cc3OC)cc2N)C1 (stereo partly shown) [EC1911] | 0.7 | – | –
C=C1C[C@H]2C(=O)Nc3cc(OCCCCCOc4cc(N)c(C(=O)N5CC(=C)C[C@H]5C5OCCN5C(=O)OCCSSC[C@H](NC(=O)[C@H](CC(=O)O)NC(=O)[C@H](CC(=O)O)NC(=O)[C@H](CCCNC(=N)N)NC(=O)[C@H](CC(=O)O)NC(=O)CC[C@H](NC(=O)c5ccc(NCc6cnc7nc(N)[nH]c(=O)c7n6)cc5)C(=O)O)C(=O)O)cc4OC)c(OC)cc3C(=O)N2C1 (stereo partly shown) [EC1744] | 1.2 | Toxicity was not observed | toxicity as evidenced by test animal total body weight ([1]; MDA-MB-231 tumor study, 2 μmol/kg TIW for two weeks): Toxicity was not observed; MDA-MB-231 tumors compared to untreated control (MDA-MB-231 tumors): decreases MDA-MB-231 tumors; also recorded: decreased triple negative breast cancer (TNBC) MDA-MB-231 tumors; complete response, number of test animals, MDA-MB-231 tumors (MDA-MB-231 tumors): 5/5; cure, number of test animals, MDA-MB-231 tumors (MDA-MB-231 tumors): 4/5
C=C1C[C@H]2C(=O)Nc3cc(OCCCCCOc4cc(N)c(C(=O)N5CC(=C)C[C@H]5C5OCCN5C(=O)OCCCSC[C@H](NC(=O)[C@H](CC(=O)O)NC(=O)[C@H](CC(=O)O)NC(=O)[C@H](CCCNC(=N)N)NC(=O)[C@H](CC(=O)O)NC(=O)CC[C@H](NC(=O)c5ccc(NCc6cnc7nc(N)[nH]c(=O)c7n6)cc5)C(=O)O)C(=O)O)cc4OC)c(OC)cc3C(=O)N2C1 (stereo partly shown) [EC1772] | 0.33 | – | –
C=C1C[C@@H](C2OCCN2C(=O)OCC2c3ccccc3-c3ccccc32)N(C(=O)c2cc(OC)c(OCCCCCOc3cc(NC(=O)OCc4ccc(NC(=O)[C@H](C)NC(=O)[C@@H](NC(=O)CCOCCOCCOCCOCCNC(=O)CCN5C(=O)CC(SC[C@@H](NC(=O)[C@H](CCC(=O)NC[C@H](O)[C@@H](O)[C@H](O)[C@H](O)CO)NC(=O)[C@@H](CCC(=O)O)NC(=O)[C@H](CCC(=O)NC[C@H](O)[C@@H](O)[C@H](O)[C@H](O)CO)NC(=O)[C@@H](CCC(=O)O)NC(=O)[C@H](CCC(=O)NC[C@H](O)[C@@H](O)[C@H](O)[C@H](O)CO)NC(=O)CC[C@H](NC(=O)c6ccc(NCc7cnc8nc(N)[nH]c(=O)c8n7)cc6)C(=O)O)C(=O)O)C5=O)C(C)C)cc4)c(C(=O)N4CC(=C)C[C@H]4C4OCCN4C(=O)OCC4c5ccccc5-c5ccccc54)cc3OC)cc2N)C1 (stereo partly shown) [EC2103] | 3.5 | – | –
